Here are results for three molecules from US4843087A (priority 1986, dated 1989).

SMILES strings stand for the structures. Values after ≈ are worked out from the molar mass of the structure shown. Like-named read-outs stand apart in the source and are kept apart here.

The subject of data set [1] is echovirus-9. In words: in vivo efficacy in echovirus-9 mouse infection model.
In data set [2] the test system is enteroviruses. In words: microbe, parasite or virus in culture. It counts as cell-based. The note with it: Enterovirus, read-out: MIC80.
For data set [3], the system named is Polio 2. In words: microbe, parasite or virus in culture. Format: cell-based, poliovirus. The conditions noted are these: Enterovirus C, HeLa, read-out: Polio 2 MIC.
A short description of data set [4]: blood plasma concentration in dogs after oral administration. The note with it: dog, beagle dogs, fasted, oral 25 mg/kg in corn oil, up to six hours. Format: in vivo. As to the method: The blood plasma concentrations of the compounds of the invention were measured in beagle dogs by the following procedure: Animals ranging in weight from 8.5 to 11.5 kg were fasted overnight prior to oral administration of 25 mg/kg of the test compound dissolved in corn oil (125 mg/ml) and contained in gelatin capsules. Blood samples were collected at selected time intervals up to six hours post-medication and analyzed by standard chromatographic procedures to determine the mean maximum concentration of the test compound in micrograms per milliliter [Mean Cmax, μg/ml].

Data set [5] has as its system human rhinovirus (HRV) serotypes. In words: microbe, parasite or virus in culture. It counts as cell-based. The note with it: for MIC50: read-out: Rhinovirus MIC50.
Data set [6] concerns coxsackie virus A-9. In words: in vivo efficacy in coxsackie virus A-9 mouse infection model.
Data set [7] deals with poliovirus, type 2, MEF strain. In words: animal or person. It counts as in vivo, white Swiss mice. The conditions noted are these: Enterovirus C, in Mus musculus, po, 336 h, read-out: Survivors Day 14 Post Infection.

For `Cc1cc(CCCCCOc2c(Cl)cc(C3=NCCO3)cc2Cl)on1` [5-{5-[2,6-Dichloro-4-(4,5-dihydro-2-oxazolyl)phenoxyl]-pentyl}-3-methylisoxazole], in data set [1], the “oral activity in echovirus-9 infections” value is recorded as “potent oral activity”. The IC (MIC80 of serotype panel) in data set [2] was found to be 1.6 µg/mL. For the same molecule, in data set [3], the MIC amounted to 0.59 µg/mL (≈ 1.54 µM). Further, the highest concentration (Cmax) in data set [4] came to 1570 ± 350 ng/mL. Besides, the IC (MIC80 of serotype panel) in data set [5] (read-out: MIC80) is 0.23 µg/mL. The MIC50 in data set [5] stood at 0.07 µg/mL (≈ 0.183 µM). Further, the IC (MIC80 of serotype panel) in data set [5] (read-out: Rhinovirus MIC80) was 0.126 µg/mL. Moreover, in data set [6] (Mus musculus, po, read-out: PD50), the ED50 was 2.5 mg/kg. Moreover, the “oral activity in coxsackie virus A-9 infections” value in data set [6] (mouse infection model, oral) is on record as “potent oral activity”. Also, in data set [7], the responders at 50 mg/kg is 10%, the responders at 100 mg/kg is 25% and the responders at 200 mg/kg was 30%.

Take `Cc1cc(CCCCCOc2c(Cl)cc(C3=NC(C)CO3)cc2Cl)on1` (centres unmarked) [Example 107, 5-{5-[2,6-Dichloro-4-(4,5-dihydro-4-methyl-2-oxazolyl)phenoxy]pentyl}-3-methylisoxazole]: the MIC in data set [3] is 4.6 µg/mL (≈ 11.6 µM). This molecule displayed a Cmax in data set [4] of 1530 ± 140 ng/mL. In data set [5], the MIC50 is 0.12 µg/mL (≈ 0.302 µM). The IC (MIC80 of serotype panel) in data set [5] (read-out: Rhinovirus MIC80) was 0.37 µg/mL.

For the molecule `Cc1cc(CCCCC(C)Oc2c(Cl)cc(C3=NCCO3)cc2Cl)on1` (centres unmarked) [Example 109, 5-{5-[2,6-Dichloro-4-(4,5-dihydro-2-oxazolyl)phenoxy]hexyl}-3-methylisoxazole], the MIC in data set [3] was 2.9 µg/mL (≈ 7.3 µM). This molecule showed a Cmax in data set [4] of 2110 ± 610 ng/mL. Also, the MIC50 in data set [5] worked out at 0.16 µg/mL (≈ 0.403 µM). The IC (MIC80 of serotype panel) in data set [5] (read-out: Rhinovirus MIC80) was 0.89 µg/mL.
